Data taken from paper PMC6133161, “Thiazoles with cyclopropyl fragment as antifungal, anticonvulsant, and anti-Toxoplasma gondii agents: synthesis, toxicity evaluation, and molecular docking study” (Medicinal Chemistry Research, 2018).

Tested on: all tested strains of Candida
Experiment: Antifungal screening, all strains
Assay type: cell-based
From the text: The examined compounds 3a–3j were screened in vitro for antibacterial and antifungal activities using the broth microdilution method according to European Committee on Antimicrobial Susceptibility Testing (EUCAST) (EUCAST [2003]) and Clinical and Laboratory Standards Institute guidelines (CLSI [2012]) against reference strains of microorganisms from American Type Culture Collection (ATCC), including fungi belonging to yeasts (Candida albicans ATCC 2091, Candida albicans ATCC 10231, Candida parapsilosis ATCC 22019 and Candida krusei ATCC 14243).
In the study of antifungal activity of the compounds 3a–3j, 15 clinical strains of different species of yeasts from Candida species, namely C. albicans, C. dubliniensis C. famata, C. inconspicua, C. krusei, C. tropicalis, C. glabrata, C. lambica, C. kefyr, C. lusitaniae, C. parapsilosis, C. guilliermondii, C. lusitaniae, C. pulcherrima and C. sake were also used. […] After incubation, the MIC was assessed spectrophotometric as the lowest concentration of the samples showing complete fungal growth inhibition. […] MFC was determined by removing the culture using for MIC determinations from each well and spotting onto appropriate agar medium. […] The lowest compounds concentration with no visible growth observed was assessed as a fungicidal concentration. […]

Question: With `FC(F)(F)c1ccc(-c2csc(N/N=C/C3CC3)n2)cc1` [Compound 3e, (E)-2-(2-(Cyclopropylmethylene)hydrazinyl)-4-(4-(trifluoromethyl)phenyl)thiazole] as the molecule, how does the antifungal activity read?
Answer: Its antifungal activity is “inactive”.
